As usually defined, the IC50 is the point on the concentration scale where inhibition reaches its midpoint. A high value points to weaker potency.

The values below come from patent US10703764B2, “Benzopiperazine compositions as BET bromodomain inhibitors” (FORMA Therapeutics, Inc., priority 2013, dated 2020).

In one assay the target is T1, BRD4 BD2 (Homo sapiens, UniProt O60885).
T1 construct: made in house
The experiment in a line: AlphaScreen binding assay, BRD4 Bromodomain 2. An outline of the steps: (§1)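 Compound dilution series were mixed with His-tagged BRD4 bromodomain and biotinylated tetra-acetylated H4 (1-21) peptide at pH 7.3 (BD1 and peptide at 50 nM, BD2 and peptide at 100 nM). Donor and acceptor beads were then added, and plates were equilibrated at least 1 h before reading. IC50 values were fitted with a four-parameter logistic model.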
(In general: Alpha assays give light when donor and acceptor beads are brought close together.)

The target of another assay is T2, BRD4 BD1 (Homo sapiens, UniProt O60885).
T2 construct: made in house
As to the kind of experiment: AlphaScreen binding assay, BRD4 Bromodomain 1. An outline of the steps:
as §1

Consider `CCOC(=O)N1C[C@H](C)N(C(=O)OC)c2ccc(-c3cnn(C4CC4)c3)cc21` [Example I-380], for which the results for the IC50 at BRD4 BD2 and at BRD4 BD1 were over 500 nM and 100 to 1000 nM, respectively.
In the same order, the values of `CC(=O)N1c2ccc(-c3cnn(CC(=O)O)c3)cc2N(C(=O)C2CC2)C[C@@H]1C` [Example I-676] are over 500 nM and 1000 to 10000 nM.
As for `CC(=O)N1c2ccc(-c3cncc(F)c3)cc2N(C(=O)c2ccco2)C[C@@H]1C` [Example I-830], the IC50 was 50 to 500 nM at BRD4 BD2 and 1000 to 10000 nM on BRD4 BD1.
In the same order, the values of `CC(=O)N1c2ccccc2N(C(=O)c2ccccc2Oc2ccccc2)C[C@@H]1C` [Example I-744] are over 500 nM and over 10000 nM.
On the same counts, the results for `CC(=O)N1c2ccccc2N(S(=O)(=O)c2ccc(Cl)cc2)C[C@@H]1C` [Example I-935] are over 500 nM and over 10000 nM.
Consider `CC(=O)N1c2ccc(-c3cccc(S(C)(=O)=O)c3)cc2N(C(=O)c2ccco2)C[C@@H]1C` [Example I-847], for which the IC50 at BRD4 BD2 is 50 to 500 nM; at BRD4 BD1 it was 1000 to 10000 nM.
In the same order, the values of `CC(=O)N1c2ccc(-c3cnn(CCC(N)=O)c3)cc2N(C(=O)C2CC2)C[C@@H]1C` [Example I-674] are 50 to 500 nM and 1000 to 10000 nM.
As to `CC(=O)N1c2ccccc2N(C(=O)c2cnn(-c3ccccc3)c2C(F)(F)F)C[C@@H]1C` [Example I-756], the IC50 on BRD4 BD2 was over 500 nM; on BRD4 BD1, over 10000 nM.
With `CC(=O)N1c2ccccc2N(S(=O)(=O)c2ccc(C(F)(F)F)nc2)C[C@@H]1C` [Example I-951], the IC50 at BRD4 BD2 is over 500 nM; on BRD4 BD1, over 10000 nM.
With `COC(=O)N1c2ccc(-c3cnn(CCO)c3)cc2N(C(=O)Oc2ccc(F)cc2)C[C@@H]1C` [Example I-1022], the values for the IC50 on BRD4 BD2 and on BRD4 BD1 were 50 to 500 nM and 1000 to 10000 nM, respectively.
For the compound `CC(=O)N1c2ccccc2N(Cc2cccnc2)C[C@@H]1C` [Example I-924], the 50% inhibitory concentration (IC50) at BRD4 BD2 is over 500 nM; on BRD4 BD1, over 10000 nM.
On the same counts, the results for `CC(=O)N1c2ccccc2N(C(=O)c2cc3ccccc3[nH]2)CC1C` (stereo not drawn) [Example I-730] are over 500 nM and over 10000 nM.
In the same order, the values of `CC(=O)N1c2ccc(-c3cnn(CC(=O)N4CCCCC4)c3)cc2N(C(=O)C2CC2)C[C@@H]1C` [Example I-661] are 50 to 500 nM and 1000 to 10000 nM.
On the same counts, the results for `CC(=O)N1c2ccccc2N(Cc2ccc(C(C)C)cc2)C[C@@H]1C` [Example I-892] are over 500 nM and over 10000 nM.
Consider `CC(=O)N1c2ccc(-c3ccc(C#N)cn3)cc2N(C(=O)c2ccco2)C[C@@H]1C` [Example I-392], for which the IC50 at BRD4 BD2 lay within 50 to 500 nM; on BRD4 BD1, 1000 to 10000 nM.
In the same order, the values of `CC(=O)N1c2ccc(-c3cccc(-n4cccn4)c3)cc2N(C(=O)c2ccco2)C[C@@H]1C` [Example I-853] are under 50 nM and 100 to 1000 nM.
On the same counts, the results for `COC(=O)N1c2ccc(-c3ccc(C4(O)COC4)cc3)cc2N(C(=O)C2CC2)C[C@@H]1C` [Example I-459] are 50 to 500 nM and 1000 to 10000 nM.
As for `COc1ccccc1CC(=O)N1C[C@H](C)N(C(C)=O)c2ccccc21` [Example I-711], the IC50 at BRD4 BD2 was over 500 nM; on BRD4 BD1 it was over 10000 nM.
On the same counts, the results for `CC(=O)N1c2ccc(-c3ccc4nn(C)cc4c3)cc2N(C(=O)c2ccco2)C[C@@H]1C` [Example I-404] are 50 to 500 nM and 1000 to 10000 nM.
In the same order, the values of `CC(=O)N1c2ccc(-c3cccc(N(C)C)c3)cc2N(C(=O)c2ccco2)C[C@@H]1C` [Example I-870] are 50 to 500 nM and 100 to 1000 nM.
In the same order, the values of `CC(=O)N1c2cnc(-c3ccc(S(C)(=O)=O)cc3)cc2N(C(=O)c2ccco2)C[C@@H]1C` [Example I-57, (S)-1-(1-(furan-2-carbonyl)-3-methyl-7-(4-(methylsulfonyl)phenyl)-2,3-dihydropyrido[3,4-b]pyrazin-4(1H)-yl)ethanone] are 50 to 500 nM and over 10000 nM.
Turning to `COC(=O)N1c2ccc(-c3ccc(NS(C)(=O)=O)cc3)cc2N(C(=O)Oc2cccnc2)C[C@@H]1C` [Example I-1278], the figures for the IC50 on BRD4 BD2 and on BRD4 BD1 were over 500 nM and 1000 to 10000 nM, respectively.
In the same order, the values of `COC(=O)N1c2ccc(-c3ccc(C(=O)NCCN)cc3)cc2N(C(=O)OC(C)C)C[C@@H]1C` [Example I-489] are over 500 nM and 1000 to 10000 nM.
On the same counts, the results for `CCNC(=O)Cn1cc(-c2ccc3c(c2)N(C(=O)C2CC2)CC(C)N3C(C)=O)cn1` (stereo not drawn) [Example I-681] are 50 to 500 nM and 1000 to 10000 nM.
`COC(=O)N1c2ccc(-c3cnn(CCO)c3)cc2N(C(=O)Oc2ccccn2)C[C@@H]1C` [Example I-1335]: the figures for the IC50 on BRD4 BD2 and on BRD4 BD1 were 50 to 500 nM and 1000 to 10000 nM, respectively.
In the same order, the values of `COc1cscc1C(=O)N1C[C@H](C)N(C(C)=O)c2ccccc21` [Example I-747] are over 500 nM and over 10000 nM.
On the same counts, the results for `CC(=O)N1c2ccc(-c3ccc(S(C)(=O)=O)cc3)cc2N(C(=O)NCC(C)C)C[C@@H]1C` [Example I-978] are over 500 nM and over 10000 nM.
In the same order, the values of `CC(=O)N1c2ccccc2N(Cc2cccc(C(F)(F)F)c2)C[C@@H]1C` [Example I-899] are over 500 nM and over 10000 nM.
On to `CC(=O)N1c2ccc(-c3ccc(S(C)(=O)=O)cc3)cc2N(C(=O)OC(C)C)C[C@H]1C` [Example I-297], for which the values for the IC50 on BRD4 BD2 and at BRD4 BD1 were over 500 nM and over 10000 nM, respectively.
In the same order, the values of `CC(=O)N1c2ccc(-c3cccc(C(=O)NC4CC4)c3)cc2N(C(=O)c2ccco2)C[C@@H]1C` [Example I-802] are under 50 nM and 1000 to 10000 nM.
On to `COC(=O)N1c2ccc(-c3cnn(C4CC4)c3)cc2N(C(=O)Oc2cccnc2)C[C@@H]1C` [Example I-1283], for which the IC50 on BRD4 BD2 lay within 50 to 500 nM; at BRD4 BD1, 1000 to 10000 nM.
Regarding `CC(=O)N1c2ccccc2N(C(=O)CC(C)C)C[C@@H]1C` [Example I-708], the IC50 is over 500 nM at BRD4 BD2 and over 10000 nM at BRD4 BD1.
On the same counts, the results for `CC(=O)N1c2ccc(-c3nccn3C)cc2N(C(=O)c2ccco2)C[C@@H]1C` [Example I-388] are over 500 nM and over 10000 nM.
As to `CC(=O)N1c2ccc(-c3ccc(S(C)(=O)=O)cc3)cc2N(C(=O)c2cccc(N)c2)C[C@@H]1C` [Example I-985], the results for the IC50 at BRD4 BD2 and on BRD4 BD1 were 50 to 500 nM and over 10000 nM, respectively.
In the same order, the values of `CC(=O)N1c2ccccc2N(C(=O)c2cc3ccccc3n2C)C[C@@H]1C` [Example I-748] are over 500 nM and over 10000 nM.
As for `CC(=O)N1c2ccccc2N(Cc2ccccn2)C[C@@H]1C` [Example I-913], the IC50 is over 500 nM on BRD4 BD2 and over 10000 nM on BRD4 BD1.
As to `CC(=O)N1c2ccc(-c3cccc4c3OCC4)cc2N(C(=O)c2ccco2)C[C@@H]1C` [Example I-386], the IC50 at BRD4 BD2 was 50 to 500 nM; at BRD4 BD1, 1000 to 10000 nM.
As to `CC(=O)N1c2ccccc2N(C(=O)c2snnc2C)C[C@@H]1C` [Example I-757], the IC50 at BRD4 BD2 is over 500 nM; at BRD4 BD1, over 10000 nM.
In the same order, the values of `CC(=O)N1c2ccccc2N(C(=O)c2ccc3c(c2)OCO3)C[C@@H]1C` [Example I-701] are over 500 nM and over 10000 nM.
